From the supplement of paper PMC10307832 come the findings set out here.

What all share (experiment): relative viability (nuclei count vs DMSO), 5 days (fraction); higher = more cells survive
Compound in test [1]: CCn1c(-c2nonc2N)nc2cnc(Oc3cccc(NC(=O)c4ccc(OCCN5CCOCC5)cc4)c3)cc21 + CCNC(=O)c1noc(-c2cc(C(C)C)c(O)cc2O)c1-c1ccc(CN2CCOCC2)cc1 [Luminespib] (partner 0.01 µM)
The method, boiled down: (§1)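 Relative viability equals treated-well nuclei counts divided by vehicle-well nuclei counts. Counts came from 4× images of lung cancer cell lines grown in 1536-well plates for 5 days after pin-tool dosing on the day after seeding. Dosing used one drug alone or a fixed anchor-drug dose plus five library-drug doses (not always all listed) in √10 steps, and values are medians of duplicate plates.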

Compound in test [2]: CCn1c(-c2nonc2N)nc2cnc(Oc3cccc(NC(=O)c4ccc(OCCN5CCOCC5)cc4)c3)cc21 + O=C(c1cc(Cc2n[nH]c(=O)c3ccccc23)ccc1F)N1CCN(C(=O)C2CC2)CC1 [Olaparib] (partner 8 µM)
The method, boiled down: as §1

Compound in the test “Mirin + Lapatinib”: N=C1NC(=O)/C(=C/c2ccc(O)cc2)S1 [Mirin] + CS(=O)(=O)CCNCc1ccc(-c2ccc3ncnc(Nc4ccc(OCc5cccc(F)c5)c(Cl)c4)c3c2)o1 [Lapatinib] (partner 2 µM)
The method, boiled down:
as §1

Compound in the test “Mirin + Decitabine”: N=C1NC(=O)/C(=C/c2ccc(O)cc2)S1 [Mirin] + Nc1ncn([C@H]2C[C@H](O)[C@@H](CO)O2)c(=O)n1 [Decitabine] (partner 2 µM)
The method, boiled down: as §1

For NCI-H3122, the relative viability in test [1] (first compound 0.04 µM) is 0.0608; in test [1] (first compound 0.1265 µM) it was 0.0978; in test [1] (first compound 0.4 µM) it was 0.0882; in test [1] (first compound 1.265 µM), 0.0945; in test [1] (first compound 4 µM) it was 0.0955; in test [2] (first compound 0.04 µM) it was 0.697. The relative viability in test [2] (first compound 0.1265 µM) was found to be 0.618; in test [2] (first compound 0.4 µM) it was 0.643; in test [2] (first compound 1.265 µM), 0.607; in test [2] (first compound 4 µM), 0.592; in the test with Mirin + Lapatinib (first compound 0.25 µM) it was 1.04; with Mirin + Lapatinib (first compound 0.7906 µM), 1.02. For the same cell line, the relative viability in the test with Mirin + Lapatinib (first compound 2.5 µM) was determined as 1.05; with Mirin + Lapatinib (first compound 7.906 µM) it was 1.05; with Mirin + Lapatinib (first compound 25 µM), 1.18; in the test with Mirin + Decitabine (first compound 0.25 µM), 0.41; in the test with Mirin + Decitabine (first compound 0.7906 µM), 0.431; in the test with Mirin + Decitabine (first compound 2.5 µM), 0.432. Further, the relative viability in the test with Mirin + Decitabine (first compound 7.906 µM) came to 0.372; in the test with Mirin + Decitabine (first compound 25 µM) it was 0.353.
On to PC-3 [JPC-3], for which the relative viability is 0.849 in test [1] (first compound 0.04 µM); 0.73 in test [1] (first compound 0.1265 µM); 0.718 in test [1] (first compound 0.4 µM); 0.726 in test [1] (first compound 1.265 µM); 0.626 in test [1] (first compound 4 µM); 1.13 in test [2] (first compound 0.04 µM). The relative viability in test [2] (first compound 0.1265 µM) came to 1.14; in test [2] (first compound 0.4 µM) it was 0.966; in test [2] (first compound 1.265 µM), 0.746; in test [2] (first compound 4 µM), 0.861; in the test with Mirin + Lapatinib (first compound 0.25 µM), 0.52; with Mirin + Lapatinib (first compound 0.7906 µM), 0.469. For the same cell line, the relative viability with Mirin + Lapatinib (first compound 2.5 µM) was determined as 0.462; with Mirin + Lapatinib (first compound 7.906 µM) it was 0.455; with Mirin + Lapatinib (first compound 25 µM) it was 0.491; with Mirin + Decitabine (first compound 0.25 µM), 0.818; in the test with Mirin + Decitabine (first compound 0.7906 µM) it was 0.825; with Mirin + Decitabine (first compound 2.5 µM), 0.825. For the same cell line, the relative viability in the test with Mirin + Decitabine (first compound 7.906 µM) was determined as 0.76; with Mirin + Decitabine (first compound 25 µM), 0.836.
For PC-14, the relative viability in test [1] (first compound 0.04 µM) came to 0.15; in test [1] (first compound 0.1265 µM), 0.136; in test [1] (first compound 0.4 µM), 0.154; in test [1] (first compound 1.265 µM), 0.154; in test [1] (first compound 4 µM), 0.173; in test [2] (first compound 0.04 µM), 0.27. The relative viability amounted to 0.206 in test [2] (first compound 0.1265 µM); 0.287 in test [2] (first compound 0.4 µM); 0.309 in test [2] (first compound 1.265 µM); 0.326 in test [2] (first compound 4 µM); 0.373 with Mirin + Lapatinib (first compound 0.25 µM); 0.39 in the test with Mirin + Lapatinib (first compound 0.7906 µM). Also, the relative viability with Mirin + Lapatinib (first compound 2.5 µM) is 0.339; in the test with Mirin + Lapatinib (first compound 7.906 µM) it was 0.382; with Mirin + Lapatinib (first compound 25 µM), 0.49; in the test with Mirin + Decitabine (first compound 0.25 µM), 0.2; with Mirin + Decitabine (first compound 0.7906 µM), 0.24; with Mirin + Decitabine (first compound 2.5 µM), 0.232. Also, the relative viability with Mirin + Decitabine (first compound 7.906 µM) stood at 0.225; in the test with Mirin + Decitabine (first compound 25 µM) it was 0.205.
Consider RERF-LC-KJ, for which the relative viability in test [1] (first compound 0.04 µM) came out at 1.35; in test [1] (first compound 0.1265 µM), 1.21; in test [1] (first compound 0.4 µM), 1.04; in test [1] (first compound 1.265 µM), 0.795; in test [1] (first compound 4 µM), 0.64; in test [2] (first compound 0.04 µM) it was 0.898. The relative viability in test [2] (first compound 0.1265 µM) was 0.84; in test [2] (first compound 0.4 µM) it was 0.759; in test [2] (first compound 1.265 µM), 0.447; in test [2] (first compound 4 µM) it was 0.388; in the test with Mirin + Lapatinib (first compound 0.25 µM), 0.972; with Mirin + Lapatinib (first compound 0.7906 µM), 0.968. The relative viability with Mirin + Lapatinib (first compound 2.5 µM) amounted to 0.891; with Mirin + Lapatinib (first compound 7.906 µM), 0.835; with Mirin + Lapatinib (first compound 25 µM), 0.95; in the test with Mirin + Decitabine (first compound 0.25 µM), 0.691; with Mirin + Decitabine (first compound 0.7906 µM), 0.753; with Mirin + Decitabine (first compound 2.5 µM) it was 0.684. For the same cell line, the relative viability is 0.622 with Mirin + Decitabine (first compound 7.906 µM) and 0.561 with Mirin + Decitabine (first compound 25 µM).
As for SK-LU-1, the relative viability in test [1] (first compound 0.04 µM) amounted to 0.231; in test [1] (first compound 0.1265 µM), 0.155; in test [1] (first compound 0.4 µM), 0.189; in test [1] (first compound 1.265 µM), 0.159; in test [1] (first compound 4 µM), 0.172; in test [2] (first compound 0.04 µM) it was 0.571. The relative viability in test [2] (first compound 0.1265 µM) was 0.305; in test [2] (first compound 0.4 µM) it was 0.327; in test [2] (first compound 1.265 µM), 0.235; in test [2] (first compound 4 µM), 0.257; with Mirin + Lapatinib (first compound 0.25 µM), 0.974; with Mirin + Lapatinib (first compound 0.7906 µM) it was 0.88. The relative viability was 0.792 with Mirin + Lapatinib (first compound 2.5 µM); 0.788 in the test with Mirin + Lapatinib (first compound 7.906 µM); 0.541 with Mirin + Lapatinib (first compound 25 µM); 0.713 with Mirin + Decitabine (first compound 0.25 µM); 0.618 with Mirin + Decitabine (first compound 0.7906 µM); 0.8 with Mirin + Decitabine (first compound 2.5 µM). For the same cell line, the relative viability in the test with Mirin + Decitabine (first compound 7.906 µM) came out at 0.494; in the test with Mirin + Decitabine (first compound 25 µM), 0.509.
Consider SK-MES-1, for which the relative viability in test [1] (first compound 0.04 µM) was determined as 0.728; in test [1] (first compound 0.1265 µM), 0.681; in test [1] (first compound 0.4 µM), 0.525; in test [1] (first compound 1.265 µM), 0.485; in test [1] (first compound 4 µM), 0.37; in test [2] (first compound 0.04 µM), 0.772. Further, the relative viability in test [2] (first compound 0.1265 µM) was 0.721; in test [2] (first compound 0.4 µM), 0.656; in test [2] (first compound 1.265 µM), 0.568; in test [2] (first compound 4 µM) it was 0.483; with Mirin + Lapatinib (first compound 0.25 µM) it was 0.461; with Mirin + Lapatinib (first compound 0.7906 µM) it was 0.469. Besides, the relative viability in the test with Mirin + Lapatinib (first compound 2.5 µM) was determined as 0.544; with Mirin + Lapatinib (first compound 7.906 µM), 0.53; in the test with Mirin + Lapatinib (first compound 25 µM), 0.624; with Mirin + Decitabine (first compound 0.25 µM), 0.347; with Mirin + Decitabine (first compound 0.7906 µM) it was 0.446; in the test with Mirin + Decitabine (first compound 2.5 µM), 0.372. For the same cell line, the relative viability in the test with Mirin + Decitabine (first compound 7.906 µM) is 0.292; with Mirin + Decitabine (first compound 25 µM), 0.329.
Take SW 1573: the relative viability in test [1] (first compound 0.04 µM) worked out at 0.251; in test [1] (first compound 0.1265 µM) it was 0.207; in test [1] (first compound 0.4 µM), 0.123; in test [1] (first compound 1.265 µM), 0.196; in test [1] (first compound 4 µM), 0.137; in test [2] (first compound 0.04 µM), 0.594. For the same cell line, the relative viability turned out to be 0.4 in test [2] (first compound 0.1265 µM); 0.287 in test [2] (first compound 0.4 µM); 0.24 in test [2] (first compound 1.265 µM); 0.183 in test [2] (first compound 4 µM); 1.13 with Mirin + Lapatinib (first compound 0.25 µM); 1.16 in the test with Mirin + Lapatinib (first compound 0.7906 µM). Further, the relative viability with Mirin + Lapatinib (first compound 2.5 µM) is 1.09; in the test with Mirin + Lapatinib (first compound 7.906 µM), 0.952; with Mirin + Lapatinib (first compound 25 µM), 0.908; with Mirin + Decitabine (first compound 0.25 µM), 0.605; with Mirin + Decitabine (first compound 0.7906 µM) it was 0.61; with Mirin + Decitabine (first compound 2.5 µM), 0.482. Besides, the relative viability in the test with Mirin + Decitabine (first compound 7.906 µM) turned out to be 0.412; with Mirin + Decitabine (first compound 25 µM) it was 0.247.
